Experimental data reported in paper PMC4051601, “Identification of NAD(P)H Quinone Oxidoreductase Activity in Azoreductases from P. aeruginosa: Azoreductases and NAD(P)H Quinone Oxidoreductases Belong to the Same FMN-Dependent Superfamily of Enzymes” (PLoS ONE, 2014).

What was measured:
paAzoR1 (PA0785) [1] = biological target: T1, paAzoR1 (PA0785) (Pseudomonas aeruginosa, UniProt Q9I5F3); test: NADPH oxidation at […] nm; type: biochemical; conditions: 50 uM quinone, 500 uM NADPH, 20 mM Tris-HCl pH 8, 100 mM NaCl, 5% DMSO; only a specific rate given
T1 construct: gene azoR1; pure recombinant protein, expressed and purified as described previously; dimer with FMN
T1 sequence (Q9I5F3 1-212): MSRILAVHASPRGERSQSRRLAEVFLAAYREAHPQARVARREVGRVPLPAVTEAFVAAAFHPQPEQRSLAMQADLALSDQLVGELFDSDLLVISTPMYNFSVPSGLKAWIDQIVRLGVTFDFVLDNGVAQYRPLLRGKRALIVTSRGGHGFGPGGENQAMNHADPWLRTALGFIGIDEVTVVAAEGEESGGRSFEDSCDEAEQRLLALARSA

paAzoR3 (PA3223) = biological target: T2, paAzoR3 (PA3223) (Pseudomonas aeruginosa, UniProt Q9HZ17); test: NADH oxidation at […] nm; type: biochemical; conditions: 50 uM quinone, 500 uM NADH, 20 mM Tris-HCl pH 8, 100 mM NaCl, 5% DMSO; only a specific rate given
T2 construct: gene azoR3; pure recombinant protein, expressed and purified as described previously
T2 sequence (Q9HZ17 1-213): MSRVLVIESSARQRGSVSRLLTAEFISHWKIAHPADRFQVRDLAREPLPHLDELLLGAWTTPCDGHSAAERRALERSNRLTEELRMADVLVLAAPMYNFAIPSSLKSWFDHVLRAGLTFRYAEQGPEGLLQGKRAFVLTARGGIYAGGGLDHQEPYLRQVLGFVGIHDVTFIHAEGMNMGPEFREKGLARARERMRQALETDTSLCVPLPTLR

paAzoR1 (PA0785) [2] = biological target: T1, paAzoR1 (PA0785); test: X-ray crystallography, […] A; type: binding; conditions: FMN-bound enzyme; one of two active sites; occupancy 0.5; hydrogen bond to Tyr131; co-crystallised with 2 mM ligand, pH 8
paAzoR1 (PA0785) [3] = biological target: T1, paAzoR1 (PA0785); test: X-ray crystallography, […] A; type: binding

For `O=C1C=CC(=O)C=C1` [Bzq, Benzoquinone], the “NADPH oxidation at 340 nm” value (paAzoR1 (PA0785) [1]) was “paAzoR1 has a preference for benzoquinones e.g. Bzq (Fig. 3a)”.

`CC1=CC(=O)c2c(O)cccc2C1=O` [Plu, Plumbagin] was tested, and the “NADH oxidation at 340 nm” value (paAzoR3 (PA3223)) was “paAzoR3 prefers naphthoquinones e.g. Plu (Fig. 3c)”.

For `COC1=C(OC)C(=O)C(CC=C(C)C)=C(C)C1=O` [UQ1, Coenzyme Q1], the “X-ray crystallography, 2.0 A” value (paAzoR1 (PA0785) [2]) was “structures of paAzoR1 bound to two quinone substrates (UQ1 and AQN) have been solved”.

`Cc1cc2nc3c(=O)[nH]c(=O)nc-3n(C[C@H](O)[C@H](O)[C@H](O)COP(=O)(O)O)c2cc1C` [FMN] was tested, and the “X-ray crystallography, 1.8 A” value (paAzoR1 (PA0785) [3]; structure with AQN, FMN also seen in the UQ1 complex (4N9Q)) was “AQN also forms π-π stacking interactions with the central ring of FMN”.

`O=C1c2ccccc2C(=O)c2cc(S(=O)(=O)O)ccc21` [AQN, anthraquinone-2-sulphonate] was tested, and the “X-ray crystallography, 1.8 A” value (paAzoR1 (PA0785) [3]; FMN-bound enzyme, one of two active sites, pi-stacking on FMN, co-crystallised with 2 mM ligand, pH 8) was “structures of paAzoR1 bound to two quinone substrates (UQ1 and AQN) have been solved”.
